What was measured:
[1] = molecular target: FPTase (H-Ras substrate) (UniProt P29702+P49355); experiment: in vitro FTase Inhibition Assay, H-Ras as substrate for farnesylation; format: biochemical; settings: H-Ras used as substrate for farnesylation
Outline: (§1)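 His6-Ras substrate ([…]) with 10 ng FPTase in 50 mM Tris pH 7.5, ZnCl2, MgCl2, KCl, DTT, 0.2% octyl-β-glucoside, 1% DMSO; incubated 30-90 min. TCA/SDS-precipitated Ras filtered, 3H-FPP incorporation counted; % inhibition from background-corrected cpm versus no-compound control.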

[2] = molecular target: FPTase (K-Ras substrate) (UniProt P29702+P49355); experiment: in vitro FTase Inhibition Assay, K-Ras as substrate for farnesylation; format: biochemical; settings: K-Ras used as substrate for farnesylation
Outline: as §1

[3] = system: K-ras dependent human colon carcinoma (LoVo); experiment: In vivo effects against K-ras dependent human colon carcinoma (LoVo); settings: rats; for S/T = No. Survivors/No.Treated: Day +35 post tumor cell implantation
Experimental: Compounds of this invention were tested for in vivo effects in rats against various tumors. For the compound of Example 114, when tested against a K-ras dependent human colon carcinoma (LoVo), the following results were obtained (Table II): […]

Molecule	IC50 [1] [nM]	IC50 [2] [nM]	further results
COc1ccc(S(=O)(=O)C2(CCCC#Cc3cc(Cl)ccc3Cl)SC(=O)NC2=O)cc1 (stereo not drawn) [Example 114, 5-[5-(2,5-Dichloro-phenyl)pent-4-ynyl]-5-(4-methoxy-benzenesulfonyl)-thiazolidine-2,4-dione]	13 to 32	32 to 320	Mean Tumor Weight ([3]; Day 8, 75* mg/kg IP, BID days 1-20, prepared in 2% Tween 80 in D5W, vs 2% Tween in D5W): 86 mg; % T/C ([3]; Day 15, 75* mg/kg IP, BID days 1-20, prepared in 2% Tween 80 in D5W, vs 2% Tween in D5W): 150%; S/T = No. Survivors/No.Treated ([3]; 50 mg/kg IP, BID days 1-20, Methocel/Tween 80 series): 5/10; S/T = No. Survivors/No.Treated ([3]; 75 mg/kg IP, BID days 1-20, Methocel/Tween 80 series): 8/10; S/T = No. Survivors/No.Treated ([3]; 100 mg/kg IP, once a day days 1-20, Methocel/Tween 80 series): 9/10; S/T = No. Survivors/No.Treated ([3]; 100 mg/kg PO, BID days 1-20, 20% BCD in 0.1 N HCl series): 9/10
Cc1ccc(S(=O)(=O)C2(CCCC#Cc3ccc(C(C)(C)C)cc3)SC(=O)NC2=O)cc1 (stereo not drawn) [Example 157, 5-[5-(4-tert-Butylphenyl)pent-4-ynyl]-5-(toluene-4-sulfonyl)-thiazolidine-2,4-dione]	270	5000	
CC[C@]1(O)C[C@H]2CN(CCc3c([nH]c4ccccc34)[C@@](C(=O)OC)(c3cc4c(cc3OC)N(C=O)[C@H]3[C@@](O)(C(=O)OC)[C@H](OC(C)=O)[C@]5(CC)C=CCN6CC[C@]43[C@@H]65)C2)C1 [Vincristine, reference compound]			S/T = No. Survivors/No.Treated ([3]; 1 mg/kg IP on days 5, 9 and 13): 9/10
O=C1NC(=O)C(CCCC#Cc2ccc(Cl)cc2)(S(=O)(=O)c2ccc([N+](=O)[O-])cc2)S1 (stereo not drawn) [Example 110, 5-[5-(4-Chlorophenyl)pent-4-ynyl]-5-(4-nitrobenzenesulfonyl)-thiazolidine-2,4-dione]	400	7000	
COc1ccc(S(=O)(=O)C2(CCCC#Cc3ccc([N+](=O)[O-])cc3)SC(=O)NC2=O)cc1 (stereo not drawn) [Example 121, 5-(4-Methoxybenzenesulfonyl)-5-[5-(4-nitrophenyl)pent-4-ynyl]-thiazolidine-2,4-dione]	120	1600	
COc1ccc(S(=O)(=O)C2(CCCC#Cc3ccc(NC(=O)OC(C)(C)C)cc3C(F)(F)F)SC(=O)NC2=O)cc1 (stereo not drawn) [Example 151, (4-{5-[5-(4-Methoxybenzenesulfonyl)-2,4-dioxothiazolidin-5-yl]pent-1-ynyl}-3-trifluoromethylphenyl)-carbamic Acid tert-Butyl Ester]	530 to 700	210 to 1000	
CCCCOC(=O)Nc1ccc(C)c(C#CCCCC2(S(=O)(=O)c3ccc(OC)cc3)SC(=O)N(C(=O)OCCCC)C2=O)c1 (stereo not drawn) [Example 231, Butyl 5-(5-{5-[(butoxycarbonyl)amino]-2-methylphenyl}pent-4-ynyl)-5-[(4-methoxy-phenyl)sulfonyl]-2,4-dioxo-1,3-thiazolidine-3-carboxylate]	10 to 21	100 to 1000	
COc1ccc(S(=O)(=O)C2(CCCC#Cc3ccc(Cl)cc3)SC(=O)NC2=O)cc1 (stereo not drawn) [Example 97, 5-[5-(4-Chlorophenyl)pent-4-ynyl]-5-(4-methoxyphenylsulfonyl)-thiazolidine-2,4-dione]	75 to 150	3500 to 5500	

Now from value to molecule, other results behind:

IC50 [1] [nM]	IC50 [2] [nM]	Molecule	further results
80 to 82	1000 to 2800	COc1ccc(S(=O)(=O)C2(CCCC#Cc3cc([N+](=O)[O-])ccc3OC)SC(=O)NC2=O)cc1 (stereo not drawn) [Example 123, 5-(4-Methoxybenzenesulfonyl)-5-[5-(2-methoxy-5-nitrophenyl)pent-4-ynyl]-thiazolidine-2,4-dione]	
3 to 3.5	20 to 500	COc1ccc(S(=O)(=O)C2(CCCC#Cc3cc(NC(=O)OCC(C)(C)C)ccc3C)SC(=O)N(C(=O)OCC(C)(C)C)C2=O)cc1 (stereo not drawn) [Example 230, Neopentyl 5-[(4-methoxyphenyl)sulfonyl]-5-[5-(2-methyl-5-{[(neopentyloxy)carbonyl]-amino}phenyl)pent-4-ynyl]-2,4-dioxo-1,3-thiazolidine-3-carboxylate]	
10 to 32	100 to 130	CCCCOC(=O)Nc1ccc(C)c(C#CCCCC2(S(=O)(=O)c3ccc(OC)cc3)SC(=O)NC2=O)c1 (stereo not drawn) [Example 181, (3-{5-[5-(4-Methoxybenzenesulfonyl)-2,4-dioxothiazolidin-5-yl]pent-1-ynyl}-4-methylphenyl)carbamic Acid Butyl Ester]	
1 to 32	20 to 220	5-[5-(2-Methyl-4-nitrophenyl)pent-4-ynyl]-5-[4-(pyridin-4-yloxy)-benzenesulfonyl]-thiazolidine-2,4-dione [Example 128]	
100	1200	COc1ccc(S(=O)(=O)C2(CCCC#Cc3cc(NC(=O)Nc4ccc(Cl)cc4)ccc3C)SC(=O)NC2=O)cc1 (stereo not drawn) [Example 189, N-(4-Chlorophenyl)-N′-[3-(5-{5-[(4-methoxy-phenyl)sulfonyl]-2,4-dioxo-1,3-thiazolidin-5-yl}-1-pentynyl)-4-methylphenyl]urea]	
50 to 60	750 to 800	O=C1NC(=O)C(CCCC#Cc2ccc(Cl)cc2)(S(=O)(=O)c2cccc3ccccc23)S1 (stereo not drawn) [Example 113, 5-[5-(4-Chlorophenyl)pent-4-ynyl]-5-(naphthalene-1-sulfonyl)-thiazolidine-2,4-dione]	
30 to 50	100 to 3200	COc1ccc(S(=O)(=O)C2(CCCC#Cc3cc(NC(=O)OCc4ccccc4)ccc3C)SC(=O)N(C(=O)OCc3ccccc3)C2=O)cc1 (stereo not drawn) [Example 226, Benzyl 5-[5-(5-{[(benzyloxy)carbonyl]-amino}-2-methylphenyl)pent-4-ynyl]-5-[(4-methoxyphenyl)sulfonyl]-2,4-dioxo-1,3-thiazolidine-3-carboxylate]	
3.2 to 32	30 to 320	COc1ccc(S(=O)(=O)C2(CCCC#Cc3cc(NC(=O)OCc4ccc([N+](=O)[O-])cc4)ccc3C)SC(=O)NC2=O)cc1 (stereo not drawn) [Example 176, (3-{5-[5-(4-Methoxybenzenesulfonyl)-2,4-dioxothiazolidin-5-yl]pent-1-ynyl}-4-methylphenyl)carbamic Acid 4-Nitro-Benzyl Ester]	
100	1800	Cc1ccc(S(=O)(=O)C2(CC#Cc3ccc(-c4ccccc4)cc3)SC(=O)NC2=O)cc1 (stereo not drawn) [Example 169, 5-(3-Biphenyl-4-yl-prop-2-ynyl)-5-(toluene-4-sulfonyl)-thiazolidine-2,4-dione]	
